The values below come from patent US11497819B2, “PSMA ligands for imaging and endoradiotherapy” (priority 2017, dated 2022).

The subject of one data set is LNCaP-tumor xenograft. Description: Biodistribution in LNCaP-tumor xenograft bearing CB-17 SCID mice. Format: in vivo. The method, then: All animal experiments were carried out in accordance with the general animal welfare regulations in Germany (Deutsches Tierschutzgesetz, approval #55.2-1-54-2532-71-13). For the tumor model, LNCaP cells (approx. 10^7 cells) were suspended in serum-free DMEM-F12 medium and Matrigel (1/1; v/v) (BD Biosciences, Germany) and inoculated onto the right shoulder of male, 6 to 8 weeks old CB-17 SCID mice (Charles River Laboratories, Sulzfeld, Germany). Animals were used after the tumor size reached 4 to 8 mm in diameter for experiments.

A further data set relates to LNCaP cells. Description: Internalization into LNCaP cells, relative cellular uptake to ([^125I]I-BA)KuE. Format: cell-based. The conditions noted are these: c = 1.0 nM ^177Lu-labeled inhibitor, 37° C., 60 min, corrected for non-specific binding (10 μM 2-PMPA), mean ± SD (n = 3). The protocol:
PSMA-positive LNCAP cells (300265; Cell Lines Service GmbH) were cultivated in Dulbecco modified Eagle medium/Nutrition Mixture F-12 (1/1) (DMEM-F12, Biochrom) supplemented with fetal calf serum (FCS) (10%, Biochrom) and kept at 37° C. in a humidified CO2 atmosphere (5%). One day (24 h±2 h) prior to all experiments with LNCaP cells, the cultivated cells were harvested using a mixture of trypsin/ethylendiaminetetraacetate (0.05%/0.02%) and PBS and centrifuged. After centrifugation, the supernatant was disposed and the cell pellet resuspended in culture medium. Afterwards, cells were counted with a hemocytometer (Neubauer) and seeded in 24-well plates.
Subsequent to the removal of the culture medium, the cells were washed once with DMEM-F12-solution (500 μL, 5% BSA) and left to equilibrate for at least 15 min at 37° C. in DMEM-F12-solution (200 μL, 5% BSA). Afterwards, each well was treated with either DMEM-F12-solution (25 μL, 5% BSA) or 2-PMPA-solution (25 μL, 100 μm) for blockade. […] The experiment was terminated by placing the 24-well plate on ice for 3 min and the consecutive removal of the medium. Each well was rinsed with HBSS (250 μL) and the fractions from these first two steps combined, representing the amount of free radioligand. Removal of surface bound activity was accomplished by incubation of the cells with ice-cold 2-PMPA-solution (250 μL, 10 μm in PBS) for 5 min and subsequent rinsing with ice-cold PBS (250 μL). The internalized activity was determined through incubation of the cells in NaOH (250 μL, 1.0 m) and the combination with the fraction of the subsequent washing step with again NaOH (250 μL, 1.0 m). Each experiment (control and blockade) was performed in triplicate for each time point. Free, surface bound and internalized activity was quantified in a γ-counter.

A short description of data set [1]: Lipophilicity, logP in n-octanol/PBS of radiolabeled PSMA inhibitors. It counts as physicochemical. Particulars: pH 7.4. The protocol: The radiolabeled PSMA inhibitor (0.5 to 1.0 MBq) dissolved in PBS (500 μL, pH=7.4), was added to n-octanol (500 μL) in a reaction vial (1.5 mL), which was rigorously vortexed for 3 min (n=6). For quantitative phase separation, the mixture was centrifuged at 6,000 g for 5 min (Biofuge 15, Heraus Sepatech, Osterode, Germany). The activity from samples of each phase (100 μL) were measured in a γ-counter to obtain the log P(o/w) value.

The target of a further data set is T1, HSA (Homo sapiens, UniProt P02768).
T1 construct: purchased Daicel Chemical Industries / Chiral Technologies Europe (Illkirch, France)
T1 sequence (P02768 25-609): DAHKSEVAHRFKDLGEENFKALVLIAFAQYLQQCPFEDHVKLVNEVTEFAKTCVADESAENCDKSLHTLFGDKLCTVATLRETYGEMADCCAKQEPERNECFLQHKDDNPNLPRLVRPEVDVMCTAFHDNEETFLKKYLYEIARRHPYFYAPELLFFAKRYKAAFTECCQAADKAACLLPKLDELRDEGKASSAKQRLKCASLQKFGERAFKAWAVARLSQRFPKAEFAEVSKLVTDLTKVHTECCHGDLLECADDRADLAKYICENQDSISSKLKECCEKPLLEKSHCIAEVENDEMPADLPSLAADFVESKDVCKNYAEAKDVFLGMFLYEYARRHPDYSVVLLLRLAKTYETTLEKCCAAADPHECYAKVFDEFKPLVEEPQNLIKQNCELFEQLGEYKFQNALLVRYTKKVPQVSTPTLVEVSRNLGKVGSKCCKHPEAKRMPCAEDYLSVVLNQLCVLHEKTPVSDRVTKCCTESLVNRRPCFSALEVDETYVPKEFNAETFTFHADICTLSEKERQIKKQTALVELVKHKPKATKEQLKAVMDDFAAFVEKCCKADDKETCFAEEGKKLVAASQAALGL
Description: HSA binding on Chiralpak HSA column. Format: in vitro ADME. The protocol: HSA binding experiments were performed as previously described. […] For each run, 10 μL of the solution containing the inhibitor was injected into the RP-HPLC system and the retention time measured. […] Non-linear regression was established with OriginPro 2016G.

The mark [2] stands for this setting: male, CB-17 SCID, mouse, in vivo, 1 h.
[3] abbreviates: after logarithmic plotting and calibration (n = 1).
Setting [4] is: distribution coefficient in n-octanol/PBS, radiolabeled inhibitor, mean ± SD (n = 6), read-out: logP.

“And” between values parts separate entries of the source, which are not always exact repeats. Equal entries are not always repeated. Where two headings read alike, the source gives them in different places. *1 amine or outer side, *2 acyl side, *3 side chain or, on linkers, in order; H or OH if unused. Where a SMILES comes first, the peptide text is derived from it. Side-chain parts run from the residue outwards. [ ]: non-standard residue; d: D form. The star is where a group is joined. ξ: configuration not given here. ξOrn(Nα-γGlu(Nα-CO-Glu)) = O=C(O)CC[C@H](NC(=O)N[C@@H](CCC(=O)NC(CCCN*)C(=O)O)C(=O)O)C(=O)O; DOTAGA = O=C(O)CN1CCN(CC(=O)O)CCN(C(CCC(=O)*)C(=O)O)CCN(CC(=O)O)CC1; Phe(4-NO2) = N[C@@H](Cc1ccc([N+](=O)[O-])cc1)C(=O)O; X1 = O=C(c1ccc([N+](=O)[O-])cc1[N+](=O)[O-])*; d2Nal = N[C@H](Cc1ccc2ccccc2c1)C(=O)O; Suc = O=C(CCC(=O)[*:2])[*:1]; Dap = NC[C@H](N)C(=O)O

On to `Nc1ccc(C[C@@H](NC(=O)CCC(C(=O)O)N2CCN(CC(=O)O)CCN(CC(=O)O)CCN(CC(=O)O)CC2)C(=O)N[C@H](Cc2ccc(O)cc2)C(=O)N[C@H](Cc2ccc3ccccc3c2)C(=O)N[C@H](CCCCNC(=O)CCC(=O)NCCCC(NC(=O)CC[C@H](NC(=O)N[C@@H](CCC(=O)O)C(=O)O)C(=O)O)C(=O)O)C(=O)O)cc1` (stereo in doubt) [PSMA-49, DOTAGA-F(4-NH2)y-2-nal-k(Suc-N^5-orn-C^4-EuE)], for which, in the data set with LNCaP-tumor xenograft (setting [2]), the adrenal gland was 5.66 ± 1.66 % ID/g, the blood came out at 0.46 ± 0.06 % ID/g, the bone amounted to 0.29 ± 0.14 % ID/g and the brain was 0.03 ± 0.01 % ID/g. In the data set with LNCaP-tumor xenograft (setting [2]), the heart is reported as 0.57 ± 0.11 % ID/g, the intestine is on record as 0.30 ± 0.08 % ID/g, the liver was found to be 0.99 ± 0.19 % ID/g and the lung is recorded as 1.47 ± 0.25 % ID/g. In the data set with LNCaP-tumor xenograft (setting [2]), this molecule had a muscle of 0.17 ± 0.02 % ID/g, a pancreas of 0.56 ± 0.07 % ID/g, a spleen of 20.53 ± 6.79 % ID/g and a stomach of 0.35 ± 0.10 % ID/g. In the data set with LNCaP-tumor xenograft (setting [2]), this molecule displayed a tumor of 8.21 ± 0.23 % ID/g, a tumor/blood of 17.8, a tumor/kidney of 0.05 and a tumor/muscle of 48.3. Also, in the data set with LNCaP cells, the Internalization is listed as 245.0 ± 4.2%. For the same molecule, the lipophilicity (logP) in data set [1] was -4.01 ± 0.11.
For `O=C(O)CC[C@H](NC(=O)N[C@@H](CCC(=O)NC(CCCNC(=O)CCC(=O)NCCCC[C@@H](NC(=O)[C@@H](Cc1ccc2ccccc2c1)NC(=O)[C@@H](Cc1ccc(O)cc1)NC(=O)CCC(C(=O)O)N1CCN(CC(=O)O)CCN(CC(=O)O)CCN(CC(=O)O)CC1)C(=O)O)C(=O)O)C(=O)O)C(=O)O` (some centres unmarked) [PSMA-46, DOTAGA-y-2-nal-k(Suc-N^5-orn-C^4-EuE)], the “HSA (albumin binding)” value on HSA (setting [3]) came out at 57.7%. In addition, the Internalization with LNCaP cells is 216.2 ± 9.2%. For the same molecule, the logP in data set [1] (setting [4]) is -4.21 ± 0.08.
On to `O=C(O)CC[C@H](NC(=O)N[C@@H](CCC(=O)NC(CCCNC(=O)CCC(=O)NCCCC[C@@H](NC(=O)[C@@H](Cc1ccc2ccccc2c1)NC(=O)[C@@H](Cc1ccc(O)cc1)NC(=O)[C@H](Cc1ccc([N+](=O)[O-])cc1)NC(=O)CCC(C(=O)O)N1CCN(CC(=O)O)CCN(CC(=O)O)CCN(CC(=O)O)CC1)C(=O)O)C(=O)O)C(=O)O)C(=O)O` (some centres unmarked) [PSMA-52, DOTAGA-F(4-NO2)-y-2-nal-k(Suc-N^5-orn-C^4-EuE)] ({DOTAGA}-[Phe(4-NO2)][dY][d2Nal][dK]([Suc-ξOrn(Nα-γGlu(Nα-CO-Glu))])-OH), for which, at HSA (human, 0.5 mg/mL), the “HSA (albumin binding)” value amounted to 95.4%. The Internalization in the data set with LNCaP cells worked out at 229.9 ± 8.0%. The log partition coefficient (logP) in data set [1] was -4.11 ± 0.07.
As to `O=C(O)CC[C@H](NC(=O)N[C@@H](CCC(=O)NC(CCCNC(=O)CCC(=O)NCCCC[C@@H](NC(=O)[C@@H](Cc1ccc2ccccc2c1)NC(=O)[C@@H](Cc1ccc(O)cc1)NC(=O)[C@H](CNC(=O)CCC(C(=O)O)N1CCN(CC(=O)O)CCN(CC(=O)O)CCN(CC(=O)O)CC1)NC(=O)c1ccc([N+](=O)[O-])cc1[N+](=O)[O-])C(=O)O)C(=O)O)C(=O)O)C(=O)O` (some centres unmarked) [PSMA-53, 2,4-DNBA-Dap(DOTAGA)-y-2-nal-k(Suc-N^5-orn-C^4-EuE)] (X1-[Dap](DOTAGA)[dY][d2Nal][dK]([Suc-ξOrn(Nα-γGlu(Nα-CO-Glu))])-OH), the “HSA (albumin binding)” value on HSA (setting [3]) was found to be 95.9%. The Internalization with LNCaP cells worked out at 293.6 ± 10.0%. In data set [1] (setting [4]), the lipophilicity (logP) was -4.08 ± 0.04.
As for `Nc1ccc(C[C@H](NC(=O)CCC(C(=O)O)N2CCN(CC(=O)O)CCN(CC(=O)O)CCN(CC(=O)O)CC2)C(=O)N[C@H](Cc2ccc(O)cc2)C(=O)N[C@H](Cc2ccc3ccccc3c2)C(=O)N[C@H](CCC(=O)Nc2ccc(C(=O)NCCCC(NC(=O)CC[C@H](NC(=O)N[C@@H](CCC(=O)O)C(=O)O)C(=O)O)C(=O)O)cc2)C(=O)O)cc1` (some centres unmarked) [PSMA-60, DOTAGA-F(4-NH2)y-2-nal-e(Abz-N^5-orn-C^4-EuE)], the Internalization in the data set on LNCaP cells stood at 267.4 ± 7.9%. The same molecule had a lipophilicity (logP) in data set [1] of -3.85 ± 0.13.
Regarding `Nc1ccc(C[C@H](NC(=O)CCC(C(=O)O)N2CCN(CC(=O)O)CCN(CC(=O)O)CCN(CC(=O)O)CC2)C(=O)N[C@H](Cc2ccc(O)cc2)C(=O)N[C@H](Cc2ccc3ccccc3c2)C(=O)N[C@H](CCCCNC(=O)[C@@H](CC(=O)NCCCC(NC(=O)CC[C@H](NC(=O)N[C@@H](CCC(=O)O)C(=O)O)C(=O)O)C(=O)O)NC(=O)c2ccc([N+](=O)[O-])cc2[N+](=O)[O-])C(=O)O)cc1` (some centres unmarked) [PSMA-61, DOTAGA-F(4-NH2)y-2-nal-k(d[N^5-orn-C^4-EuE]-2,4-DNBA)], the tumor in the data set with LNCaP-tumor xenograft (1 h p.i., ^177Lu-labeled, n = 4) turned out to be 8.00±0.75 % ID/g; in the data set with LNCaP-tumor xenograft (24 h p.i., ^177Lu-labeled, n = 4) it was 7.70±1.35 % ID/g. The “HSA (albumin binding)” value on HSA (setting [3]) is 63.3%. Further, the Internalization with LNCaP cells amounted to 359.5 ± 22.6%. For the same molecule, in data set [1] (setting [4]), the log partition coefficient (logP) was -4.07 ± 0.05.
In the case of `O=C(O)CC[C@H](NC(=O)N[C@@H](CCC(=O)NC(CCCNC(=O)c1ccc(NC(=O)CC[C@@H](NC(=O)[C@@H](Cc2ccc3ccccc3c2)NC(=O)[C@@H](Cc2ccc(O)cc2)NC(=O)[C@H](CNC(=O)CCC(C(=O)O)N2CCN(CC(=O)O)CCN(CC(=O)O)CCN(CC(=O)O)CC2)NC(=O)c2ccc([N+](=O)[O-])cc2[N+](=O)[O-])C(=O)O)cc1)C(=O)O)C(=O)O)C(=O)O` (some centres unmarked) [PSMA-65, 2,4-DNBA-Dap(DOTAGA)y-2-nal-e(Abz-N^5-orn-C^4-EuE)], the “HSA (albumin binding)” value at HSA (after logarithmic plotting and calibration (n = 1), listed as [^nat/177Lu]PSMA-65) worked out at 98.7%. Also, the Internalization with LNCaP cells (listed as [^nat/177Lu]PSMA-65) was 340.2 ± 19.9% and 340.2 ± 18.9%. Besides, the logP in data set [1] (setting [4]) is -4.15 ± 0.08.
Take `Nc1ccc(C[C@H](NC(=O)CCC(C(=O)O)N2CCN(CC(=O)O)CCN(CC(=O)O)CCN(CC(=O)O)CC2)C(=O)N[C@H](Cc2ccc(O)cc2)C(=O)N[C@H](Cc2ccc3ccccc3c2)C(=O)N[C@H](CCCCNC(=O)[C@@H](CC(=O)NCCCC(NC(=O)CC[C@H](NC(=O)N[C@@H](CCC(=O)O)C(=O)O)C(=O)O)C(=O)O)NC(=O)c2cc(O)cc(O)c2)C(=O)O)cc1` (some centres unmarked) [PSMA-78, DOTAGA-F(4-NH2)y-2-nal-k(d[N^5-orn-C^4-EuE]-3,5-DHBA)]: the Internalization in the data set on LNCaP cells was 289.0 ± 6.2%.
